In US11028090B2 (Dong Wha Pharm. Co., Ltd., priority 2017, dated 2021):
Where two headings read alike, the source gives them in different places.

Key:
[1] = biological target: BRD4 (BD1+BD2) bromodomain (Homo sapiens (Human), UniProt O60885); experiment: BRD4 binding inhibition (AlphaScreen, GST-BRD4 vs tetraacetylated histone H4 peptide)
Procedure, shortened: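 GST-BRD4 (BD1+BD2) and biotinylated tetraacetyl-histone H4 peptide, each at 100 nM in HEPES pH 7.4 buffer with BSA and DTT, were combined with compound. Glutathione acceptor and streptavidin donor beads were added, then incubated 30 min at room temperature in the dark. Read-out was AlphaScreen signal.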

[2] = test system: acute myelogenous leukemia cells (MV-4-11 cells); experiment: Cytotoxicity to acute myelogenous leukemia cells (MV-4-11 cells), CCK-8; settings: Homo sapiens, MV4-11, 72 h
[3] = GST-BRD4 (BD1+BD2) / biotinylated acetyl-histone H4 (Lys5,8,12,16) peptide, read-out: IC50, BRD4 binding inhibition
[4] = GST-BRD4 (BD1+BD2) vs biotinylated acetyl-histone H4 peptide, AlphaScreen, read-out: BRD4 IC50
[5] = read-out: MV-4-11 Cytotoxicity IC50
[6] = read-out: IC50, cytotoxicity against acute myelogenous leukemia cells

Row | SMILES | IC50 [1, 3] | IC50 [1, 4] | IC50 [2, 5] | IC50 [2, 6]
1 | COc1cc2c(cc1C)nc(NCCCCNC(=O)OCC(C)C)c1nnc(C)n12 [Example 150, [4-(8-methoxy-1,7-dimethyl-[1,2,4]triazolo[4,3-a]quinoxaline-4-ylamino)-butyl]-carbamic acid isobutylester] | ≤ 50 nM | 48 nM | 460 nM | –
2 | COc1cc2nc(NCCCCNC(=O)c3ccccc3F)c3nnc(C)n3c2cc1OC [Example 106, N-[4-(7,8-dimethoxy-1-methyl-[1,2,4]triazolo[4,3-a]quinoxaline-4-ylamino)-butyl]-2-fluoro-benzamide] | ≤ 50 nM | 28 nM | 310 nM | –
3 | COCCOc1ccc2c(c1)nc(NCCCCNC(=O)c1ccccc1OC)c1nnc(C)n12 [Example 414, 2-methoxy-N-{4-[7-(2-methoxy-ethoxy)-1-methyl-[1,2,4]triazolo[4,3-a]quinoxaline-4-ylamino]-butyl}-benzamide] | ≤ 50 nM | 16 nM | 630 nM | –
4 | Cc1nnc2c(NCCCCNC(=O)CC(C)C)nc3ccc(N)cc3n12 [Example 551, N-[4-(8-amino-1-methyl-[1,2,4]triazolo[4,3-a]quinoxaline-4-ylamino)-butyl]-3-methyl-butyramide] | ≤ 50 nM | 12 nM | 135 nM | ≤ 200 nM
5 | COc1cc2nc(NCCCCC(=O)NCc3ccc[nH]3)c3nnc(C)n3c2cc1OC [Example 652, 5-(7,8-dimethoxy-1-methyl-[1,2,4]triazolo[4,3-a]quinoxaline-4-ylamino)-pentanoic acid-(1H-pyrrole-2-ylmethyl)-amide] | ≤ 50 nM | 27 nM | 200 nM | ≤ 200 nM
6 | COc1ccc2c(c1)nc(NCCCCC(=O)NCC(C)C)c1nnc(C)n12 [Example 655, 5-(7-methoxy-1-methyl-[1,2,4]triazolo[4,3-a]quinoxaline-4-ylamino)-pentanoic acid isobutylamide] | ≤ 50 nM | 11 nM | 80 nM | ≤ 200 nM
7 | Cc1nnc2c(NCCCCNC(=O)C(C)(C)C)nc3cc(OCCN4CCOCC4)ccc3n12 [Example 433, 2,2-dimethyl-N-{4-[1-methyl-7-(2-morpholine-4-yl-ethoxy)-[1,2,4]triazolo[4,3-a]quinoxaline-4-ylamino]-butyl}-propionamide] | – | 61 nM | 340 nM | –
8 | CCC(F)(F)C(=O)NCCCCNc1nc2cc(OCCOC)ccc2n2c(C)nnc12 [Example 391, 2,2-difluoro-N-{4-[7-(2-methoxy-ethoxy)-1-methyl-[1,2,4]triazolo[4,3-a]quinoxaline-4-ylamino]-butyl}-butyramide] | ≤ 10 nM | 5 nM | 200 nM | ≤ 200 nM
9 | CCC(C)C(=O)NCCCCNc1nc2cc(OCCOC)ccc2n2c(C)nnc12 (centres unmarked) [Example 380, N-{4-[7-(2-methoxy-ethoxy)-1-methyl-[1,2,4]triazolo[4,3-a]quinoxaline-4-ylamino]-butyl}-2-methyl-butyramide] | ≤ 50 nM | 13 nM | 610 nM | –
10 | CCc1nnc2c(NCCCCNC(=O)OC(C)C)nc3cc(OC)ccc3n12 [Example 623, [4-(7-methoxy-1-ethyl-[1,2,4]triazolo[4,3-a]quinoxaline-4-ylamino)-butyl]-carbamic acid isopropylester] | ≤ 50 nM | 5 nM | 400 nM | –
11 | CCCOC(=O)N[C@H](C(=O)NCCCCNc1nc2cc(OC)ccc2n2c(C)nnc12)C(C)C [Example 319, (S)-{1-[4-(7-methoxy-1-methyl-[1,2,4]triazolo[4,3-a]quinoxaline-4-ylamino)-butylcarbamoyl]-2-methyl-propyl}-carbamic acid propylester] | ≤ 50 nM | 11 nM | 114 nM | ≤ 200 nM
12 | COc1ccc2c(c1)nc(NCCCCNC(=O)[C@@H](NC(=O)CC(C)C)C(C)C)c1nnc(C)n12 [Example 322, (S)-N-[4-(7-methoxy-1-methyl-[1,2,4]triazolo[4,3-a]quinoxaline-4-ylamino)-butyl]-3-methyl-2-(3-methyl-butyrylamino)-butyramide] | ≤ 50 nM | 14 nM | 157 nM | ≤ 200 nM
13 | COc1cc2nc(NCCCCNC(=O)c3ccccc3OC)c3nnc(C)n3c2cc1OC [Example 97, N-[4-(7,8-dimethoxy-1-methyl-[1,2,4]triazolo[4,3-a]quinoxaline-4-ylamino)-butyl]-2-methoxy-benzamide] | ≤ 50 nM | – | 510 nM | –
14 | CCCOC(=O)N[C@H](C(=O)NCCCCNc1nc2cc(OCCOC)ccc2n2c(C)nnc12)C(C)C [Example 399, (S)-(1-{4-[7-(2-methoxy-ethoxy)-1-methyl-[1,2,4]triazolo[4,3-a]quinoxaline-4-ylamino]-butylcarbamoyl}-2-methyl-propyl)-carbamic acid propylester] | ≤ 10 nM | 1 nM | 570 nM | –
15 | COCCOc1ccc2c(c1)nc(NCCCCNC(=O)c1cccc(F)c1)c1nnc(C)n12 [Example 410, 3-fluoro-N-{4-[7-(2-methoxy-ethoxy)-1-methyl-[1,2,4]triazolo[4,3-a]quinoxaline-4-ylamino]-butyl}-benzamide] | ≤ 50 nM | 12 nM | 790 nM | –
16 | CSc1ccc2c(c1)nc(NCCCCNC(=O)[C@@H](F)C(C)C)c1nnc(C)n12 [Example 357, 2-(S)-fluoro-3-methyl-N-[4-(1-methyl-7-methylsulfanyl-[1,2,4]triazolo[4,3-a]quinoxaline-4-ylamino)-butyl]-butyramide] | – | 62 nM | 44 nM | ≤ 200 nM
17 | CCCOC(=O)NCCCCNc1nc2cc(-c3nc4ccccc4n3C)ccc2n2c(C)nnc12 [Example 228, {4-[1-methyl-7-(1-methyl-1H-benzoimidazole-2-yl)-[1,2,4]triazolo[4,3-a]quinoxaline-4-ylamino]-butyl}-carbamic acid propylester] | ≤ 10 nM | 7 nM | 140 nM | ≤ 200 nM
18 | C/C=C/C(=O)NCCCCNc1nc2cc(OC)c(OC)cc2n2c(C)nnc12 [Example 72, butene-2-oic acid-[4-(7,8-dimethoxy-1-methyl-[1,2,4]triazolo[4,3-a]quinoxaline-4-ylamino)-butyl]-amide] | ≤ 50 nM | 21 nM | 470 nM | –
19 | CCOc1ccc2c(c1)nc(NCCCCNC(=O)OC(C)(C)C)c1nnc(C)n12 [Example 440, [4-(7-ethoxy-1-methyl-[1,2,4]triazolo[4,3-a]quinoxaline-4-ylamino)-butyl]-carbamic acid-tert-butylester] | ≤ 10 nM | 9 nM | 580 nM | –
20 | Cc1nnc2c(NCCCCNC(=O)[C@@H](O)C(C)C)nc3cc(F)c(F)cc3n12 [Example 39, N-[4-(7,8-difluoro-1-methyl-[1,2,4]triazolo[4,3-a]quinoxaline-4-ylamino)-butyl]-2-(S)-hydroxy-3-methyl-butyramide] | ≤ 10 nM | 6 nM | 190 nM | –
21 | COCCOc1ccc2c(c1)nc(NCCCCNC(=O)[C@@H](NC(=O)OC(C)C)C(C)C)c1nnc(C)n12 [Example 400, (S)-(1-{4-[7-(2-methoxy-ethoxy)-1-methyl-[1,2,4]triazolo[4,3-a]quinoxaline-4-ylamino]-butylcarbamoyl}-2-methyl-propyl)-carbamic acid isopropylester] | ≤ 10 nM | 1 nM | 200 nM | –
